Several values for one entry are separate records, joined by “and”; a condition that tells them apart may be missing. Identical values can stand only once. Square brackets hold non-standard residues; d marks the D form. Nva = CCC[C@H](N)C(=O)O; Sar = CNCC(=O)O
Assays:
tumor growth = details: cited from earlier work; for apoptotic index of endothelial cells (in words): in vivo studies, mouse tumor models; for tumor growth (in words): syngeneic and xenograft mouse models
Source text: (§1) Additionally, TSP-1 could interact with various ligands, including extrac ...

[1] = system: VEGF-induced angiogenesis; details: cited from earlier work
Source text: as §1

[2] = stated in brackets for the recombinant human VEGF165 protein used; no test or source described; cited from earlier work
Description: CCK-8 and EdU assays were conducted to evaluate the cellular proliferation after a 24 h exposure to exogenous VEGF, which was amined to analyze the impact of 10 μg/mL VR-13 peptide on RF/6A cell proliferation induced through exogenous VEGF.

VEGF = test: Western blot of VEGF in RF/6A cells; assay type: cell-based; details: exogenous VEGF 1 ng/mL
Description: (§2) Western blot analysis was employed in this study for the assessment of the expression levels of proteins. Total protein was extracted with Radioimmunoprecipitation (RIPA) buffer (Solarbio, China) that contained phenylmethanesulfonyl fluoride (PMSF), followed by separation by 10% sodium dodecyl sulfate–polyacrylamide gel electrophoresis (SDS-PAGE, Yazyme, China). Additionally, the constant pressure of 80 V was used for 40–50 min during the electrophoresis of the proteins in compression gel. Besides, the voltage was adjusted to 120 V after the entering of proteins to the separating gel. Subsequently, proteins were transferred onto a polyvinylidene difluoride (PVDF) membrane (Millipore, USA), and the operation time was determined according to the molecular weight of the protein (VEGF-55 min, CD31-91 min). The membrane was blocked with 5% non-fat milk for 2 h and incubated with primary antibodies overnight at 4 °C, and the primary antibody was diluted with Tris-Buffered Saline with Tween 20 (TBST) following the instructions. Subsequently, the samples were washed three times with TBST, incubated with the corresponding secondary antibody for 90 min at room temperature, and washed three times with TBST. Besides, Electrochemiluminescence (Invitrogen iBright™ FL1500) was used for the visualization of proteins, followed by the imaging analysis of the experimental results. […]

RF/6A cells [3] = test: Wound-healing assay; assay type: cell-based; details: 1 ng/mL exogenous VEGF, 24 h
Description: (§3) RF/6A cells were obtained from Cell Cook, China. The cells were maintained in minimum essential medium supplemented with 10% fetal Bovine serum (Viva Cell, China) and 1% penicillin-streptomycin solution (Viva Cell, China). Additionally, the samples were cultured in an incubator under the condition of 37 °C and 5% CO2.
After the drawing of 3 parallel lines at the external bottom surface of a 6-well plate, 4 × 10^5 RF/6A cells were seeded in it and incubated to a density of 80–90%. Next, scratches perpendicular to the drawn lines were made at the bottom of each well by a 200 μL pipette tip. Subsequently, the wells were rinsed three times with PBS to eliminate the floating cells. Whereafter, the medium was replaced with the serum that contained 1% fetal bovine. The wound healing process was assessed at the time point of 0 h and 24 h, alongside the acquirement of microscope images at 10× for the record and statistical analysis of the scratch distance. Additionally, the scratch healing rate was calculated as follows:
Scratch_healing_rate=0h_scratch_distance−24h_scratch_distance/0h_scratch_distance100% (1)

RF/6A cells [4] = test: Flow cytometry, total apoptosis rate; assay type: cell-based
RF/6A cells [5] = test: CCK-8 cell viability assay; assay type: cell-based; details: CCK-8, different concentrations of recombinant human VEGF165 (S2 Fig A)
Description: as §3
(§4) The Cell Counting Kit-8 (CCK-8) from Proteintech (China) and 5-ethynyl-2′-deoxyuridine (EdU)-488™ kit from Beyotime (China) were employed for the assessment of the proliferative viability of RF/6A cell. Additionally, 10^4 cells were plated in 96-well plates. After 24 h of intervention, according to different groups, CCK-8 detection reagent was added, and the optical density was recorded at 450 nm during the following 4 h. Regarding the EdU assay, 2 × 10^4 cells were cultured in 24-well plates after 24 h of intervention according to different groups. Firstly, the EdU working solution (20μM) preheated at 37 ° C was combined with medium at the ratio of 1:1. Secondly, the cells were washed three times with (phosphate buffered saline) PBS after the fixing with 4% paraformaldehyde for 15 min. Subsequently, the samples were permeabilized with PBS that contained 0.3% Triton X-100 for 10 min, followed by three times of washing with PBS, after which the EdU detection was conducted. […] Finally, fluorescence detection was performed after nuclear staining by Hoechst 33342.

CD31 = test: Western blot of CD31 in RF/6A cells; assay type: cell-based; details: exogenous VEGF 1 ng/mL
Description: as §2

[6] = system: CD36 knockdown RF/6A cells; test: EdU assay in CD36 knockdown cells; assay type: cell-based; details: Fig 5 data, exogenous VEGF alone, single replicates (n = 4)
Description: The Cell Counting Kit-8 (CCK-8) from Proteintech (China) and 5-ethynyl-2′-deoxyuridine (EdU)-488™ kit from Beyotime (China) were employed for the assessment of the proliferative viability of RF/6A cell. Additionally, 10^4 cells were plated in 96-well plates. After 24 h of intervention, according to different groups, CCK-8 detection reagent was added, and the optical density was recorded at 450 nm during the following 4 h. Regarding the EdU assay, 2 × 10^4 cells were cultured in 24-well plates after 24 h of intervention according to different groups. Firstly, the EdU working solution (20μM) preheated at 37 ° C was combined with medium at the ratio of 1:1. Secondly, the cells were washed three times with (phosphate buffered saline) PBS after the fixing with 4% paraformaldehyde for 15 min. Subsequently, the samples were permeabilized with PBS that contained 0.3% Triton X-100 for 10 min, followed by three times of washing with PBS, after which the EdU detection was conducted. Whereafter, 100 μL Click reaction solution was added to each well and incubated at room temperature in the dark for 30 min, followed by washing again with PBS, the Click reaction solution configuration method was shown in Table 1. Finally, fluorescence detection was performed after nuclear staining by Hoechst 33342. […]

RF/6A cells [7] = test: EdU proliferation assay; assay type: cell-based; details: Fig 2 data, 1 ng/mL exogenous VEGF alone, 24 h, single replicates (n = 4)
Description: as §3, §4

Substance	apoptotic index of endothelial cells (in words) (tumor growth)	tumor growth (in words) (tumor growth)	VEGF-induced angiogenesis (in words) [1]	EC50 [2] [ng/mL]	VEGF expression in RF/6A cells after exogenous VEGF (in words) (VEGF)	migration of RF/6A cells exposed to VEGF (in words) (RF/6A cells [3])	apoptosis rate (RF/6A cells [4]; Fig 3 data, RF/6A, 1 ng/mL exogenous VEGF alone, single replicates (n = 6))	apoptosis of RF/6A cells after exogenous VEGF (in words) (RF/6A cells [4]; exogenous VEGF)	optimal concentration for inducing significant proliferation of RF/6A (RF/6A cells [5]) [ng/mL]	CD31 expression in RF/6A cells after exogenous VEGF (in words) (CD31)	EdU positive(%) [6]	EdU positive(%) (RF/6A cells [7])
Ac-Sar-Gly-Val-Dallolle-Thr-Nva-Ile-Arg-Pro-NHEt [ABT-510, anti-angiogenic nonapeptide based on TSP-1 type I repeats]	increase of the apoptotic index of endothelial cells	slow down the tumor growth	inhibit VEGF-induced angiogenesis	–	–	–	–	–	–	–	–	–
Ac-[Sar]GV[dI]T[Nva]IRP-NHEt [ABT-526, anti-angiogenic nonapeptide based on TSP-1 type I repeats]	increase of the apoptotic index of endothelial cells	slow down the tumor growth	–	–	–	–	–	–	–	–	–	–
VEGF	–	–	–	0.3 to 3.75	significantly upregulated	strong cell migration ability	8.99 and 11.46 and 10.46 and 11.80 and 11.97 and 12.71	didn’t exhibit a connection with apoptosis	1	significantly upregulated	24% and 28.99% and 30.32% and 23.72%	37.99% and 38.36% and 36.47% and 33.64%

— article PMC12180637, “Active peptides of TSP-1 inhibit retinal angiogenesis through the CD36 pathway in a rat model of choroidal neovascularization” (PLOS One, 2025)
